Assay results from patent US20050232860A1, “Use of edg-receptor agonists for the treatment of hypertension” (priority 2001, published 2005).
Where a name gives a salt, the structure may show the parent alone.

What was measured:
PC12 cells = test: Veratridine-evoked [^3H]noradrenaline release from PC12 cells; format: cell-based, rat; conditions: for effect on veratridine-evoked [^3H]noradrenaline release (concentration-response): in the absence of rauwolscine / interacting drugs; for activity at 100 µM: PC-12, read-out: Veratridine (1 mM)-induced [^3H]noradrenaline release (% of controls without drug); for effect on veratridine-induced [^3H]noradrenaline release (concentration-response): in the presence of 3 μM rauwolscine; for effect on veratridine-evoked [^3H]noradrenaline release, given alone: CB1 antagonist given alone; for effect on evoked tritium overflow: 3 μM rauwolscine
Experimental: PC12 cells were cultured in suspension culture as described by Harder and Bönisch (1984). […] For the experiments on intact cells, PC12 cells were cultured in a humidified CO2-incubator (at 37° C. and in the presence of 9% CO2) on dishes (60 mm, Nunc) coated with polyornithine 0.1 g/l (in 0.15 M boric acid, and 67 mM NaOH, adjusted with HCl to pH 8.4). Each culture dish contained about 10^7 cells corresponding to about 1 mg cell protein.
To load the cells with labelled noradrenaline, 10 nM [^3H]noradrenaline was added to the culture medium (3 ml/dish) and the cells were incubated for 3 h in a CO2-incubator (37° C.). To minimize oxidation of the catecholamine, L(+)-ascorbic acid (1 mM) was present in all solutions. The cells were then washed twice with culture medium and incubated for 60 min with [^3H]noradrenaline-free culture medium (with a change of the medium after 30 min). Subsequently the cell dishes were transferred to a water bath of 37° C. (onset of the experiment) and the cells were then incubated until the end of the experiment with prewarmed (37° C.) [^3H]noradrenaline-free HEPES-buffered salt solution (composition in mM unless stated otherwise: NaCl 125, KCl 15, KH2PO4 1.2, CaCl2 2.6, MgSO4 1.2, HEPES-NaOH (pH 7.4) 25, D(+)-glucose 5.6, L(+)-ascorbic acid 1.0) with a change of the medium every 5 min (total incubation time in the HEPES buffer: 85 min). To minimize loss of cells during washing und to inhibit the neuronal noradrenaline transport system the solution contained 1 g/l bovine serum albumin and 1 μM desipramine, respectively (Friedrich and Bönisch, 1986). The agonist and/or antagonist under study was added to the HEPES buffer at the onset of the exposure to this buffer. Sixty min after onset of incubation with the buffer 1 mM veratridine was added for 5 min. In a few experiments, the HEPES-buffered salt solution contained 4.8 instead of 15 mM KCl and stimulation was carried out either by 1 mM veratridine or by increasing the KCl concentration to 15 mM (time schedule identical to the standard procedure). In one series of experiments, culture medium was changed daily (instead of changing it every 3 days as standard condition) and 100 μM clonidine was added to the medium for 72 h. The cells were then washed twice with clonidine-free culture medium (with a change of the medium after 30 min). Subsequently the cell dishes were transferred to a water bath of 37° C. (onset of the experiment) and the cells were then incubated until the end of the experiment with prewarmed (37° C.) [^3H]noradrenaline-free HEPES-buffered salt solution and veratridine was administered 2 h after the end of exposure to clonidine. Basal efflux of tritium was determined in the 5-min period before and in that 20 min after onset of stimulation. Veratridine-evoked tritium overflow was determined in the four 5-min periods after the onset of veratridine application. At the end of the experiment, the cells were solubilized by 0.1% v/v TritonX-100 (in 5 mM Tris-HCl, pH 7.4). The radioactivity of the solubilized cells und of the wash-out samples was determined by liquid scintillation counting.

h(edg2) receptor = target: T1, h(edg2) receptor (Homo sapiens, UniProt Q92633); test: Agonist-induced [^35S]GTPγS binding to membranes from RH7777 cells stably transfected with h(edg2) receptors; format: biochemical; conditions: for agonist character at the edg2-receptor: increase to the same extent as for the endogenous ligand LPA; for effect on [^35S]GTPγS-binding: nanomolar concentrations, 10 μM rauwolscine, 0.1 μM GDP
T1 construct: expressed in transfected cells; host or cells: RH7777 cells (rat hepatoma cells), membranes
T1 sequence (Q92633 whole entry): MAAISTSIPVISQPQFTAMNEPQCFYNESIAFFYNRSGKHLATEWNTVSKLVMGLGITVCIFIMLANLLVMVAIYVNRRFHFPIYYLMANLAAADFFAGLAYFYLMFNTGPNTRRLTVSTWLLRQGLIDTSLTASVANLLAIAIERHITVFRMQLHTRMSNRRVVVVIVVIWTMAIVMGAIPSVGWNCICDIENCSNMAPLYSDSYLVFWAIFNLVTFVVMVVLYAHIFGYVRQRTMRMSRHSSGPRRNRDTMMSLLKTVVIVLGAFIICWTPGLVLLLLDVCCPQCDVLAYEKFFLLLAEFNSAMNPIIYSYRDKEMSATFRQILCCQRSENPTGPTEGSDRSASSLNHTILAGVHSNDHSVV
Experimental: RH7777 cells (rat hepatoma cells) stably transfected with cDNA encoding the h(edg2) receptor and PC12 cells were homogenized in ice-cold 20 mM HEPES buffer containing […] EDTA (pH 7.4 at RT) with an ultraturrax homgenizer and centrifuged at 48,000 g, 4° C. for 15 min. The pellet was resuspended in ice-cold 20 mM HEPES buffer containing 0.1 mM EDTA (pH 7.4 at RT) and recentrifuged at 48,000 g, 4° C. for 15 min. The final pellet was resuspended in 20 mM HEPES buffer (pH 7.4 at RT).
50 μg Membranes were incubated in 0.5 ml of GTP-binding buffer containing GDP 0.1 μM, rauwolscine 10 μM (in the experiments with membranes from RH7777 cells), [^35S]GTPγs 0.05 nM and indicated test compound (LPA, clonidine or moxonidine diluted in assay buffer containing 1% fatty acid free BSA) for 45 min at 30° C. The incubation was terminated by filtering over GF/B filters with a cell harvester, and the filters were washed once with 5 ml of ice-cold assay buffer. Radioactivity was counted by liquid scintillation spectrometry at an efficiency of >95%.

α2-adrenoceptors = test: [^3H]rauwolscine radioligand binding to membranes from undifferentiated PC12 cells; set-up: species or system rat; conditions: 16.8 nM radioligand; for [^3H]Rauwolscine binding: n=4
Experimental: Results are expressed as mean values±SEM. All experiments were carried out in triplicate.

[1] = drug 100 μM, 3 μM rauwolscine present

Molecule: CCCCCCCC/C=C\CCCCCCCC(=O)OC[C@@H](O)COP(=O)(O)O [1-oleoyl-LPA, 1-oleoyl-lysophosphatidic acid]
- effect on evoked [^3H]noradrenaline release (PC12 cells; 10 μM 1-oleoyl-LPA, cells pretreated with 100 μM clonidine for 72 h): did not inhibit but tended to increase
- effect on veratridine-evoked [^3H]noradrenaline release (concentration-response) (PC12 cells): concentration-dependently inhibited

Molecule: CCCCCCCCCCCCCCCC(=O)OCC(O)COP(=O)(O)O (centres unmarked) [1-palmitoyl-LPA]
- effect on evoked [^3H]noradrenaline release (PC12 cells; 10 μM 1-palmitoyl-LPA): did not alter
- effect on evoked [^3H]noradrenaline release (PC12 cells; up to 1 μM 1-palmitoyl-LPA): concentration-dependently increased

Molecule: N=C(N)NN1Cc2c(Cl)ccc(Cl)c2C1 [Aganodine, aganodine]
- effect on veratridine-induced [^3H]noradrenaline release at 100 μM (in words) (PC12 cells; [1]): inhibited
- Veratridine (1 mM)-induced [^3H]noradrenaline release (% of controls without drug) (PC12 cells; drug 100 μM, 15 mM KCl, 1 μM desipramine and 3 μM rauwolscine throughout, means ± SEM of 6-11 experiments): 32.3 ± 5.7%

Molecule: N=C(N)NCCCCN.O=S(=O)(O)O [Agmatine, agmatine sulfate]
- activity at 100 µM (PC12 cells; Rattus norvegicus): 76.4 ± 9.5%
- effect on veratridine-induced [^3H]noradrenaline release at 100 μM (in words) (PC12 cells; [1]): inhibited
- effect on veratridine-induced [^3H]noradrenaline release (concentration-response) (PC12 cells): concentration-dependently inhibited

Molecule: CCCCC/C=C\C/C=C\C/C=C\C/C=C\CCCC(=O)NCCO [Anandamide, anandamide]
- effect on veratridine-evoked [^3H]noradrenaline release (PC12 cells; 1 μM anandamide): did not affect
- effect on veratridine-evoked [^3H]noradrenaline release (PC12 cells; 100 μM anandamide): enhanced

Molecule: Cl.Clc1cccc2c1CN(NC1=NCCN1)C2 [BDF 6143, 4-chloro-2-(2-imidazolin-2-ylamino)-isoindoline hydrochloride]
- activity at 100 µM (PC12 cells; Rattus norvegicus): 74.7 ± 11.1%
- effect on veratridine-induced [^3H]noradrenaline release at 100 μM (in words) (PC12 cells; [1]): inhibited
- effect on veratridine-induced [^3H]noradrenaline release (concentration-response) (PC12 cells): concentration-dependently inhibited

Molecule: c1ccc(C2CC2)c(OCC2=NCCN2)c1 [Cirazoline, cirazoline hydrochloride]
- activity at 100 µM (PC12 cells; Rattus norvegicus): 17.4 ± 7.5%
- effect on veratridine-induced [^3H]noradrenaline release at 100 μM (in words) (PC12 cells; [1]): inhibited

Molecule: Clc1cccc(Cl)c1N=C1NCCN1 [Clonidine, clonidine hydrochloride]
- agonist character at the edg2-receptor (h(edg2) receptor): full agonists
- effect on [^35S]GTPγS-binding (h(edg2) receptor): provoke an increase
- effect on [^3H]noradrenaline release (PC12 cells; 10 μM clonidine in the presence of 10 μM SR141716A): acted facilitatory
- evoked [^3H]noradrenaline release (% of veratridine-evoked release in the respective control experiments) (PC12 cells; 100 μM clonidine, cells pretreated with 100 μM clonidine for 72 h, n=6): 171±24%
- activity at 100 µM (PC12 cells; Rattus norvegicus): 25.6 ± 12.2%
- effect on veratridine-induced [^3H]noradrenaline release at 100 μM (in words) (PC12 cells; [1]): inhibited
- effect on veratridine-evoked [^3H]noradrenaline release (concentration-response) (PC12 cells): concentration-dependently inhibited
- effect on veratridine-induced [^3H]noradrenaline release (concentration-response) (PC12 cells): concentration-dependently inhibited

Molecule: Cc1ccccc1NC(=N)Nc1ccccc1C [DTG, 1,3-di(2-tolyl)guanidine]
- activity at 100 µM (PC12 cells; Rattus norvegicus): 63.3 ± 7%
- effect on veratridine-induced [^3H]noradrenaline release at 100 μM (in words) (PC12 cells; [1]): inhibited

Molecule: COc1ccc(-c2sc3cc(OC)ccc3c2C(=O)c2ccc(C#N)cc2)cc1 [LY320135, [6-methoxy-2-(4-methoxyphenyl)benzo[b]thien-3-yl][4-cyanophenyl]methanone]
- interaction with the inhibition produced by 100 μM clonidine (PC12 cells; 10 μM LY320135): counteracted
- evoked [^3H]noradrenaline release (% of evoked release in the respective control experiments) (PC12 cells; 10 μM LY320135 together with 10 μM 1-oleoyl-LPA, n=6): 198.8%±39.9%
- effect on veratridine-evoked [^3H]noradrenaline release, given alone (PC12 cells): did not affect

Molecule: COc1nc(C)nc(Cl)c1N=C1NCCN1 [Moxonidine, moxonidine]
- agonist character at the edg2-receptor (h(edg2) receptor): full agonists
- effect on [^35S]GTPγS-binding (h(edg2) receptor): provoke an increase
- activity at 100 µM (PC12 cells; Rattus norvegicus): 81.6 ± 5.2%
- effect on veratridine-induced [^3H]noradrenaline release (PC12 cells; up to a concentration of 1000 μM, 3 μM rauwolscine present): failed to modify

Molecule: NC[C@H](O)c1ccc(O)c(O)c1 [Noradrenaline, noradrenaline base]
- activity at 100 µM (PC12 cells; Rattus norvegicus): 93 ± 11.5%
- effect on veratridine-induced [^3H]noradrenaline release at 100 μM (in words) (PC12 cells; [1]): failed to modify

Molecule: COC(=O)[C@H]1[C@H]2C[C@H]3c4[nH]c5ccccc5c4CCN3C[C@H]2CC[C@@H]1O [Rauwolscine, Rauwolscine hydrochloride]
- effect on the concentration-response curve of clonidine (PC12 cells; 3 μM rauwolscine versus absence of rauwolscine): did not substantially differ
- effect on the concentration-response curve of clonidine (PC12 cells; 30 μM rauwolscine): shifted to the right
- interaction with the inhibitory effect of 10 μM 1-oleoyl-LPA (PC12 cells; 30 μM rauwolscine): counteracted
- effect on veratridine-induced [^3H]noradrenaline release, given alone (PC12 cells; rauwolscine 3 μM alone, n=6): did not significantly modify

Molecule: CCCCCCCCCCCCC/C=C/[C@@H](O)[C@@H](N)COP(=O)(O)O [S1P, sphingosine-1-phosphate]
- evoked [^3H]noradrenaline release (% of veratridine-evoked release in the respective control experiments) (PC12 cells; 10 μM S1P, n=6): 101.7%±31.3%

Molecule: Cc1c(C(=O)NN2CCCCC2)nn(-c2ccc(Cl)cc2Cl)c1-c1ccc(Cl)cc1 [SR141716A, N-[piperidin-1-yl]-5-[4-chlorophenyl]-1-[2,4-dichlorophenyl]-4-methyl-1H-pyrazole-3-carboxamide]
- interaction with the inhibition produced by 100 μM clonidine (PC12 cells; 1 μM SR141716A): counteracted
- interaction with the inhibitory effect of 10 μM 1-oleoyl-LPA (PC12 cells; 1 μM SR141716A): counteracted
- interaction with the inhibitory effect of 0.3 μM CP55,940 (PC12 cells; 1 μM SR141716A + 3 μM rauwolscine): antagonized
- effect on the concentration-response curve of clonidine (PC12 cells; 10 μM SR141716A): shifted to the right
- effect on veratridine-evoked [^3H]noradrenaline release, given alone (PC12 cells): did not affect

Molecule: CS(=O)(=O)O.Cc1c(C(=O)c2cccc3ccccc23)c2cccc3c2n1[C@H](CN1CCOCC1)CO3 [WIN55,212-2, R(+)-[2,3-dihydro-5-methyl-3-[(morpholinyl)methyl]pyrrolo[1,2,3-de]-1,4-benzoxazin-yl)(1-naphthalenyl)methanone mesylate]
- effect on veratridine-induced [^3H]noradrenaline release (concentration-response) (PC12 cells): concentration-dependently inhibited

Molecule: Cc1c(C(=O)c2cccc3ccccc23)c2cccc3c2n1[C@@H](CN1CCOCC1)CO3 [WIN55,212-3]
- effect on veratridine-induced [^3H]noradrenaline release at 100 μM (in words) (PC12 cells; [1]): did not

Molecule: COC(=O)[C@H]1[C@H]2C[C@H]3c4[nH]c5ccccc5c4CCN3C[C@H]2CC[C@@H]1O [[^3H]Rauwolscine, [O-methyl-3H]rauwolscine]
- [^3H]Rauwolscine binding as % of the radioactivity added to each assay (α2-adrenoceptors; absence of 10 μM rauwolscine): 0.19±0.01%
- [^3H]Rauwolscine binding (α2-adrenoceptors; absence of 10 μM rauwolscine): 134.0±7.1 fmol/mg protein
- [^3H]Rauwolscine binding as % of the radioactivity added to each assay (α2-adrenoceptors; presence of 10 μM rauwolscine): 0.19±0.01%
- [^3H]Rauwolscine binding (α2-adrenoceptors; presence of 10 μM rauwolscine): 132.8±7.0 fmol/mg protein

Molecule: COc1cc2c(c(OC)c1OC)-c1ccc(OC)c(=O)cc1[C@@H](NC(C)=O)CC2 [colchicine]
- inhibition at 50 µM (PC12 cells; Rattus norvegicus, PC-12, read-out: inhibition of veratridine (1 mM)-evoked tritium overflow): 56%

Molecule: [(−)-cis-3-[2-hydroxy-4-(1,1-dimethylheptyl)phenyl]-trans-4-(3-hydroxypropyl)-cyclohexane [CP55,940]
- effect on evoked tritium overflow (PC12 cells; 0.3 μM CP55,940): significantly inhibited
- effect on evoked tritium overflow (PC12 cells; 1 μM CP55,940): no inhibition
- effect on evoked tritium overflow (PC12 cells; 10 μM CP55,940): facilitation

Molecule: lysophospatidic acid [LPA]
- effect on [^35S]GTPγS-binding (h(edg2) receptor): provoke an increase
